Measurements: patent publication US8580965B2, “Substituted sulfonamide compounds” (Gruenenthal GmbH, priority 2006, dated 2013)

Assays:
[1] = target: T1, human B1R receptor (bradykinin 1 receptor) (Homo sapiens, UniProt P46663); assay: FLIPR Ca2+ assay (Fluo-4) on CHO K1 cells stably transfected with the human B1R gene; % activation and % inhibition at 10 μM; type: cell-based; details: CHO-K1, test substance 10 μM; CHO K1 hB1R cells; Ca2+ inflow after 0.5 nM Lys-Des-Arg9-bradykinin; read-out: B1R antagonism, human [10 μM] % inhibition
T1 construct: host or cells: CHO K1 cells (hB1R cells)
T1 sequence (P46663 1-353): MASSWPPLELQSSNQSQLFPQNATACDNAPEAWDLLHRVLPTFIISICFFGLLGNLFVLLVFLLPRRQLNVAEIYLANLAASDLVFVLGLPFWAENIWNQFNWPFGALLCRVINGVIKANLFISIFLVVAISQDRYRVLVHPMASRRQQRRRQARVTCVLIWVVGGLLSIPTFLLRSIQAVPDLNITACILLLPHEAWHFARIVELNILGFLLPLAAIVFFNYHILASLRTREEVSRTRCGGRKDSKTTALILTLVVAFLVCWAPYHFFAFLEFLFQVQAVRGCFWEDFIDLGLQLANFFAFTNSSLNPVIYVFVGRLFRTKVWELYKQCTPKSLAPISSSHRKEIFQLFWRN
Procedure, shortened: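 CHO K1 cells stably expressing human or rat B1R, Fluo-4 loaded, read by FLIPR (peak fluorescence). Compound at 10 µM first gives % activation versus agonist; after 10 min, agonist (human: 0.5 nM Lys-Des-Arg9-bradykinin; rat: 100 nM Des-Arg9-bradykinin) gives % inhibition relative to maximal inhibition.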

[2] = target: T2, B1R receptor of the rat (bradykinin 1 receptor) (Rattus norvegicus, UniProt P97583); assay: FLIPR Ca2+ assay (Fluo-4) on CHO K1 cells stably transfected with the B1R gene of the rat; % activation and % inhibition at 10 μM; type: cell-based; details: CHO-K1, test substance 10 μM; CHO K1 rB1R cells; Ca2+ inflow after 100 nM Des-Arg9-bradykinin; read-out: B1R antagonism, rat [10 μM] % inhibition
T2 construct: host or cells: CHO K1 cells (rB1R cells)
T2 sequence (P97583 1-337): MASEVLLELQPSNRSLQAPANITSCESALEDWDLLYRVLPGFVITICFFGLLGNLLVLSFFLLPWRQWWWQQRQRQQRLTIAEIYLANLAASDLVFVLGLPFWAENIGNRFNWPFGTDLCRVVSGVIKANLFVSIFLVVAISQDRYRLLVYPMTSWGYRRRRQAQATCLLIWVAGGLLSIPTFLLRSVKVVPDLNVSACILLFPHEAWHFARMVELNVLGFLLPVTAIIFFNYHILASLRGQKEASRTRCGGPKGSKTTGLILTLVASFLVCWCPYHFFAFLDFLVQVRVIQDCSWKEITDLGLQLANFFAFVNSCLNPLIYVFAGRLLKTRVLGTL
Protocol: The agonistic or antagonistic action of substances can be quantified on the bradykinin receptor 1 (B1R) of the species human and rat with ectopically expressing cell lines (CHO K1 cells) and with the aid of a Ca^2+-sensitive dye (Fluo-4) using a fluorescent imaging plate reader (FLIPR). The indication in % activation is based on the Ca^2+ signal after addition of Lys-Des-Arg^9-bradykinin (0.5 nM) or Des-Arg^9-bradykinin (100 nM). Antagonists result in a suppression of the Ca^2+ influx following administration of the agonist. The % inhibition in comparison with the maximum achievable inhibition is indicated.
Functional Investigation on the Bradykinin 1 Receptor (B1R)
The agonistic or antagonistic action of substances can be determined on the bradykinin 1 receptor (B1R) of the human and rat species with the following assay. According to this assay, the Ca^2+ inflow through the channel is quantified with the aid of a Ca^2+-sensitive dyes (Fluo-4 type, Molecular Probes Europe BV, Leiden, The Netherlands) in a fluorescent imaging plate reader (FLIPR, Molecular Devices, Sunnyvale, USA).
Chinese Hamster Ovary cells (CHO K1 cells) which are stably transfected with the human B1R gene (hB1R cells, Euroscreen s.a., Gosselies, Belgium) or the B1R gene of the rat (rB1R cells, Axxam, Milan, Italy) are used. For functional investigations, these cells are plated-out on black 96-well plates with a clear base (BD Biosciences, Heidelberg, Germany) in a density of 20,000-25,000 cells/well. Overnight, the cells are incubated at 37° C. and 5% CO2 in culture medium (hB1R cells: Nutrient Mixture Ham's F12, Gibco Invitrogen GmbH, Karlsruhe, Germany; rB1R cells: D-MEM/F12, Gibco Invitrogen, Karlsruhe, Germany) with 10 vol. % FBS (foetal bovine serum, Gibco Invitrogen GmbH, Karlsruhe, Germany). On the following day, the cells are loaded with 2.13 μM Fluo-4 (Molecular Probes Europe BV, Leiden, The Netherlands) in HBSS buffer (Hank's buffered saline solution, Gibco Invitrogen GmbH, Karlsruhe, Germany) […] (Sigma-Aldrich, Taufkirchen, Germany) and 10 mM HEPES (Sigma-Aldrich, Taufkirchen, Germany) for 60 min at 37° C. The plates are subsequently washed 2× with HBSS buffer, and HBSS buffer which additionally contains 0.1% BSA (bovine serum albumin; Sigma-Aldrich, Taufkirchen, Germany), 5.6 mM glucose and 0.05% gelatine (Merck KGaA, Darmstadt, Germany) is added. After a further incubation of 20 minutes at room temperature, the plates are inserted into the FLIPR for Ca^2+ measurement. The Ca^2+-dependent fluorescence is measured here before and after addition of substances (λex=488 nm, λem=540 nm). The quantification is effected by measurement of the highest fluorescence intensity (FC, fluorescence counts) over time.
The FLIPR protocol comprises 2 additions of substance. Test substances (10 μM) are first pipetted on to the cells and the Ca^2+ inflow is compared with the control (hB1R: Lys-Des-Arg^9-bradykinin 0.5 nM; rB1R: Des-Arg^9-bradykinin 100 nM). The value in % activation based on the Ca^2+ signal after addition of Lys-Des-Arg^9-bradykinin (0.5 nM) or Des-Arg^9-bradykinin (100 nM) is obtained therefrom. After incubation for 10 minutes, 0.5 nM Lys-Des-Arg^9-bradykinin (hB1R) or 100 nM Des-Arg^9-bradykinin (rB1R) are applied and the inflow of Ca^2+ is likewise determined. Antagonists lead to a suppression of the Ca^2+ inflow. % inhibition compared with the maximum inhibition which can be achieved is calculated. The compounds show a good activity on the human and on the rat receptor. The following data were determined by way of example: […]

inhibition at 10 µM [1] [%]	inhibition at 10 µM [2] [%]	Structure (SMILES)
74.9	79	Cc1cc(C)c(S(=O)(=O)N2CCCCC2COCC(=O)N2CCC(O)(c3cccnc3)CC2)c(C)c1 (centres unmarked) [Example 68, 1-(4′-hydroxy-3′,4′,5′,6′-tetrahydro-2′H-[3,4′]bipyridinyl-1′-yl)-2-[1-(2,4,6-trimethyl-phenylsulfonyl)-piperidin-2-ylmethoxy]-ethanone]
9.45	28.4	O=C(COCc1sccc1N(Cc1ccccc1)S(=O)(=O)c1ccc(Cl)c(Cl)c1)N1CCC(O)(Cc2ccccc2)CC1 [Example 69, N-benzyl-N-{2-[2-(4-benzyl-4-hydroxy-piperidin-1-yl)-2-oxo-ethoxymethyl]-thiophen-3-yl}-3,4-dichloro-phenylsulfonamide]
7.12	-12.2	CN(CCOCC(=O)N1CCC(O)(c2ccccn2)CC1)S(=O)(=O)c1cc(F)cc(F)c1 [Example 70, 3,5-difluoro-N-{2-[2-(4′-hydroxy-3′,4′,5′,6′-tetrahydro-2′H-[2,4′]bipyridinyl-1′-yl)-2-oxo-ethoxy]-ethyl}-N-methyl-phenylsulfonamide]
-0.46	4.46	CN(CCOCC(=O)N1CCC(O)(c2ccccn2)CC1)S(=O)(=O)c1cc(F)ccc1F [Example 71, 2,5-difluoro-N-{2-[2-(4′-hydroxy-3′,4′,5′,6′-tetrahydro-2′H-[2,4′]bipyridinyl-1′-yl)-2-oxo-ethoxy]-ethyl}-N-methyl-phenylsulfonamide]
3.33	18.7	O=C(COCC1Cc2ccccc2CN1S(=O)(=O)c1ccc(F)cc1)N1CCC(O)(c2ccccn2)CC1 (centres unmarked) [Example 72, 2-[2-(4-fluoro-phenylsulfonyl)-1,2,3,4-tetrahydro-isoquinolin-3-ylmethoxy]-1-(4′-hydroxy-3′,4′,5′,6′-tetrahydro-2′H-[2,4′]bipyridinyl-1′-yl)-ethanone]

The remaining lines, values behind:

Structure (SMILES)	inhibition at 10 µM [1] [%]	inhibition at 10 µM [2] [%]
COc1ccc(S(=O)(=O)N2CCC(OCC(=O)N3CCC(O)(c4ccccn4)CC3)C2)cc1OC (centres unmarked) [Example 52, 2-[1-(3,4-dimethoxy-phenylsulfonyl)-pyrrolidin-3-yloxy]-1-(4′-hydroxy-3′,4′,5′,6′-tetrahydro-2′H-[2,4′]bipyridinyl-1′-yl)-ethanone]	-10	11.9
CN(CCOCC(=O)N1CCC(O)(c2ccccn2)CC1)S(=O)(=O)c1ccc(F)cc1 [Example 56, 4-fluoro-N-{2-[2-(4′-hydroxy-3′,4′,5′,6′-tetrahydro-2′H-[2,4′]bipyridinyl-1′-yl)-2-oxo-ethoxy]-ethyl}-N-methyl-phenylsulfonamide]	-13.5	-1.13
O=C(COC1CCN(S(=O)(=O)c2ccc(F)cc2)C1)N1CCC(O)(c2ccccn2)CC1 (centres unmarked) [Example 58, 2-[1-(4-fluoro-phenylsulfonyl)-pyrrolidin-3-yloxy]-1-(4′-hydroxy-3′,4′,5′,6′-tetrahydro-2′H-[2,4′]bipyridinyl-1′-yl)-ethanone]	-23.8	-7.05
O=C(COC1CCN(S(=O)(=O)c2cccc(C(F)(F)F)c2)C1)N1CCC(O)(c2ccccn2)CC1 (centres unmarked) [Example 59, 1-(4′-hydroxy-3′,4′,5′,6′-tetrahydro-2′H-[2,4′]bipyridinyl-1′-yl)-2-[1-(3-trifluoromethyl-phenylsulfonyl)-pyrrolidin-3-yloxy]-ethanone]	-24	16.6
Cc1ccc(F)cc1S(=O)(=O)N(C)CCOCC(=O)N1CCC(O)(c2ccc(Cl)cc2)CC1 [Example 61, N-(2-(2-(4-(4-chlorophenyl)-4-hydroxypiperidin-1-yl)-2-oxoethoxy)ethyl)-5-fluoro-N,2-dimethylphenylsulfonamide]	56.2	86.4
Cc1ccc(F)cc1S(=O)(=O)N(C)CCOCC(=O)N1CCC(O)(Cc2ccccc2)CC1 [Example 62, N-{2-[2-(4-benzyl-4-hydroxy-piperidin-1-yl)-2-oxo-ethoxy]-ethyl}-5-fluoro-2,N-dimethyl-phenylsulfonamide]	7.47	22.9
O=C(COCC1CCCCN1S(=O)(=O)c1cccc2ccccc12)N1CCC(O)(c2ccc(Cl)cc2)CC1 (centres unmarked) [Example 63, 1-(4-(4-chlorophenyl)-4-hydroxypiperidin-1-yl)-2-((1-(naphthalen-1-ylsulfonyl)piperidin-2-yl)methoxy)ethanone]	84.8	91.8
O=C(COCC1CCCCN1S(=O)(=O)c1cccc2ccccc12)N1CCC(O)(Cc2ccccc2)CC1 (centres unmarked) [Example 64, 1-(4-benzyl-4-hydroxy-piperidin-1-yl)-2-[1-(naphthalene-1-sulfonyl)-piperidin-2-ylmethoxy]-ethanone]	69.2	64.2
O=C(COCC1CCCCN1S(=O)(=O)c1cccc(C(F)(F)F)c1)N1CCC(O)(Cc2ccccc2)CC1 (centres unmarked) [Example 65, 1-(4-benzyl-4-hydroxy-piperidin-1-yl)-2-[1-(3-trifluoromethyl-phenylsulfonyl)-piperidin-2-ylmethoxy]-ethanone]	21	25.8
Cc1cc(C)c(S(=O)(=O)N2CCCCC2COCC(=O)N2CCC(O)(c3ccc(Cl)cc3)CC2)c(C)c1 (centres unmarked) [Example 66, 1-(4-(4-chlorophenyl)-4-hydroxypiperidin-1-yl)-2-((1-(mesitylsulfonyl)piperidin-2-yl)methoxy)ethanone]	84.5	99.2
Cc1cc(C)c(S(=O)(=O)N2CCCCC2COCC(=O)N2CCC(O)(Cc3ccccc3)CC2)c(C)c1 (centres unmarked) [Example 67, 1-(4-benzyl-4-hydroxy-piperidin-1-yl)-2-[1-(2,4,6-trimethyl-phenylsulfonyl)-piperidin-2-ylmethoxy]-ethanone]	55.4	86.5
